According to US20240082212A1, “USE OF MDMA FOR TREATMENT OF STRESS-RELATED DISORDERS” (priority 2022, published 2024):
Entries after “also recorded” stand apart in the source; their conditions may differ.

Tested on: CD (Sprague Dawley) rats
Experiment: Rat telemetry: heart rate, blood pressure, body temperature, activity after cumulative SC dosing
Type: in vivo
From the text: Methods. A total of 42 adult male CD® (Sprague Dawley) rats (Charles River Laboratories) were surgically implanted with DSI radiotelemetry devices by personnel at Charles River Laboratories Raleigh, NC, per their test site SOPs. Telemetry devices supported continuous recording of temperature, activity, blood pressure and heart rate. Telemeterized rats were shipped to the Charles River Laboratories testing facility (Mattawan, MI) and acclimated to the environment for at least 1 week prior to experimentation. Animals were pair-housed in solid bottom cages with nonaromatic bedding. On the dosing day, animals were singly housed and then returned to the paired cohort following the dosing/telemetry recording phase. Diet (Lab Diet® Certified Rodent Diet #5CR4) and tap water via an automatic water system were available ad libitum, except during designated procedures. Temperature and humidity were maintained according to the Testing Facility SOP. Animals were randomized into treatment groups using a standard, by weight, measured value randomization procedure. Body weight was determined for each rat prior to dosing.
As illustrated in the Table, a total of 36 rats were included in the study. The vehicle and 2 test article doses were administered in a volume of 1 mL/kg to each of 3 groups of n=12 telemeterized rats via subcutaneous injection four times on a given day, followed by neurobehavioral evaluations. This series was repeated 3 times on study. Each group received all 3 dose levels of the applicable test or control article in ascending order with a 1-week washout between dose levels.
Mortality/cage side clinical observations were conducted for all study animals at least twice daily beginning upon receipt through termination, except on days of receipt and termination where frequency was at least once daily. Detailed clinical observations were conducted for all study animals prior to each of the four cumulative doses in a series. Individual body weights were conducted for all study animals at transfer, prior to randomization, on the day of dosing on each of the 3 cycles of dosing. The body weights recorded at transfer and prior to randomization are not reported but are maintained in the study file. Veterinary care was available throughout the course of the study, and animals were examined by the veterinary staff as needed based on clinical signs or other changes. All animals were provided with HydroGel the night prior to their respective dosing days to potentially mitigate any animal welfare issues related to fluid loss/dehydration.
Telemetry monitoring was conducted for all animals 2 hours prior to dosing and through to 7.5 hours following the last (4th) cumulative dose of each series, which included continuous data collection of body temperature, activity, heart rate, and blood pressure (systolic, diastolic, and mean arterial) using telemetry.
The total period of time over which the statistical analyses were conducted encompassed the entire dosing period for all animals (i.e., Dose 1 through 7.5 hour post-4th dose) in an effort to draw conclusions regarding the effects of the dosing procedure and cumulative changes by allowing comparisons between the cumulative dosing periods. The following statistical analyses were performed for each analysis segment.
All time-series data comparisons conducted via statistical analysis are relative to the control treatment and are based on the LSMean values. Additionally, the change values used for the statistical analysis were calculated using a baseline of the 2 hours of pre-dose data, prior to the first compound injection of the series. The raw change values were analyzed.

[1] = racemic MDMA 20 mg/kg/day, S-MDMA 10 mg/kg/day, approximate
[2] = telemetry, cumulative SC dosing, dose groups stated in the value

With `CNC(C)Cc1ccc2c(c1)OCO2` (single isomer, unassigned) [S-MDMA, S(+)-MDMA] the “hemodynamic parameters (systolic/diastolic/mean arterial blood pressures and heart rate)” value (4 hourly SC injections, cumulative doses 5, 10, or 20 mg/kg/day) was “dose-dependent blood pressure-increasing effects”, the “period of significantly decreased body temperature compared to R-MDMA (10 mg/kg/day)” value (S-MDMA 10 mg/kg/day, approximate) was 0.5-1 hours post initiation of dosing and the body temperature response (S-MDMA 5, 10 mg/kg/day, racemic-MDMA 10, 20 mg/kg/day, 4 hourly SC injections) was “hyperthermic response”. For the same compound, the “activity (implanted telemetry devices)” value (all cumulative doses (5, 10, or 20 mg/kg/day)) was “Activity-increasing effects”, the “blood pressure increase [mean arterial pressure]” value (maximum change, R-MDMA and racemic MDMA 10, 20 mg/kg/day, S-MDMA 5, 10 mg/kg/day, 4 hourly SC injections) was “up to +36%” and the peak body temperatures (overall mean magnitude of change, 4 hourly SC injections) was 39.5 °C. The “period of significantly increased body temperature compared to R-MDMA (10 mg/kg/day)” value [1] was 3.5-4 hours post initiation of dosing, the “period of significantly increased heart rate compared to R-MDMA (10 mg/kg/day)” value [1] was 5-10 hours post initiation of dosing and the “period of significantly increased mean arterial blood pressure compared to R-MDMA (10 mg/kg/day)” value [1] was 1.5-3 hours post initiation of dosing. For the same compound, the “period of significantly increased systolic blood pressure compared to R-MDMA (10 mg/kg/day)” value [1] was 1.5-3 hours post initiation of dosing, the “Rank Order Blood Pressures (Systolic, Diastolic, and Mean Arterial) Effects” value [2] was “R-MDMA (10 mg/kg/day) < S-MDMA (5 mg/kg/day) < Rac.-MDMA (10 mg/kg/day); also recorded: R-MDMA (20 mg/kg/day) < S-MDMA (10 mg/kg/day) < Rac-MDMA (20 mg/kg/day); also recorded: S-MDMA (0 mg/kg/day) < S-MDMA (5 mg/kg/day) < S-MDMA (10 mg/kg/day); also recorded: R-MDMA (10 mg/kg/day) < S-MDMA (10 mg/kg/day) < Rac-MDMA (20 mg/kg/day)” and the “Rank Order Body Temperature Effects” value [2] was “R-MDMA (10 mg/kg/day) < S-MDMA (5 mg/kg/day) < Rac.-MDMA (10 mg/kg/day); also recorded: R-MDMA (20 mg/kg/day) < S-MDMA (10 mg/kg/day) < Rac-MDMA (20 mg/kg/day); also recorded: S-MDMA (0 mg/kg/day) < S-MDMA (5 mg/kg/day) < S-MDMA (10 mg/kg/day); also recorded: R-MDMA (10 mg/kg/day) < S-MDMA (10 mg/kg/day) < Rac-MDMA (20 mg/kg/day)”. The “Rank Order General Activity Effects” value [2] was “R-MDMA (10 mg/kg/day) < S-MDMA (5 mg/kg/day) < Rac.-MDMA (10 mg/kg/day); also recorded: R-MDMA (20 mg/kg/day) < S-MDMA (10 mg/kg/day) < Rac-MDMA (20 mg/kg/day); also recorded: S-MDMA (0 mg/kg/day) < S-MDMA (5 mg/kg/day) < S-MDMA (10 mg/kg/day); also recorded: R-MDMA (10 mg/kg/day) < S-MDMA (10 mg/kg/day) < Rac-MDMA (20 mg/kg/day)” and the “Rank Order Heart Rate Measurement Effects” value [2] was “R-MDMA (10 mg/kg/day) < S-MDMA (5 mg/kg/day) < Rac.-MDMA (10 mg/kg/day); also recorded: R-MDMA (20 mg/kg/day) < S-MDMA (10 mg/kg/day) < Rac-MDMA (20 mg/kg/day); also recorded: S-MDMA (0 mg/kg/day) < S-MDMA (5 mg/kg/day) < S-MDMA (10 mg/kg/day); also recorded: R-MDMA (10 mg/kg/day) < S-MDMA (10 mg/kg/day) < Rac-MDMA (20 mg/kg/day)”.
